Several values for one entry are separate records, joined by “and”; a condition that tells them apart may be missing. Identical values can stand only once. Counter-ions that a name gives are not always drawn.
Legend:
[1] = system: pancreatic Langerhans islets of rats with alloxan diabetes; experiment: Histological examination of the pancreas of alloxan-diabetic rats (Example 3); type: in vivo, rat; settings: in 20 days after treatment; for Pancreatic Langerhans islet structure, haematoxylin-eosin staining: magnification 40×7; for Pancreatic Langerhans islet structure, aldehyde fuchsine staining: magnification 20×7
Method: Histological examination of pancreatic structure was carried out using the haematoxylin-eosin and aldehyde fuchsine staining of pancreatic sections using standard techniques.

[2] = system: white rats with experimental diabetes (alloxan diabetes); experiment: Anti-diabetic, hypolipidemic and hypocholesteremic activity, alloxan diabetes model in rats (Example 2); type: in vivo, rat; settings: compounds 50 mg/kg, metmorphin 200 mg/kg daily
Method: (§1) The comparison of anti-diabetic action of compounds was carried out using a standard model of alloxan diabetes and metmorphin as a comparative drug. The alloxan diabetes was induced by a single subcutaneous injection of water solution of alloxan hydrate (ICN Biomedicals, USA) at a dose of 150 mg/kg to rats weighting 180-200 g that have fasted for 24 hours. The following animal groups were studied: intact rats, diabetic non-treated rats, diabetic rats receiving Polfa-Kutno Ltd.″ metmorphin daily (for 23 days, 200 mg/kg); diabetic rats receiving daily (for 20 days) the abovementioned pharmaceutical compositions containing, as an active components, the compounds described in this invention: MC-200-MC-225. The compounds were administered intragastrically once a day in starch gel at a dose of 50 mg/kg rat weight.
(§2) The experimental drug doses were selected assuming the expected therapeutic doses for man and previously determined toxic doses (LD50 of studied compounds was approximately 500-1,000 mg/kg). The metmorphin dose for rats was extrapolated from the therapeutic dose for man. Drug administration was started on the third day after alloxan injection when blood glucose level increased approximately 3-fold as compared to control value. Each group consisted of 20 animals of both genders.
Pharmaceutical compositions for determination of anti-diabetic action had the same composition as that given in Example I.
The comparison of the anti-diabetic action of compounds was carried out using a standard model of alloxan diabetes, as described in Example I, and metmorphin as a comparative drug.
In the course of experiment, the following parameters were recorded: animal general condition, water consumption, body mass, levels of glucose, total lipids, tri-glycerides, serum blood cholesterol, and glycosylated hemoglobin, using the generally accepted techniques (Laboratory methods of studies in clinical practice, V. V. Menshikov, Ed., Moscow, “Medicine”, 1987).

[3] = system: rats with alloxan diabetes; experiment: Hypoglycemic activity, alloxan diabetes model in rats (Example 1); type: in vivo, rat
Method: The pharmaceutical compositions for determination of anti-diabetic action had the following composition: active compound—1 g, potato starch—1 g, water—100 ml.
as §1, §2

patients = settings: cited from earlier work
[4] = diabetic rats' blood, in 10 days, compounds 50 mg/kg intragastrically once a day in starch gel, metmorphin 200 mg/kg daily
[5] = diabetic rats' blood, in 20 days, compounds 50 mg/kg intragastrically once a day in starch gel, metmorphin 200 mg/kg daily

For `CCOC(=O)c1c(CSc2ccccc2)n(C)c2cc(Br)c(O)c(CN(C)C)c12` [MC-200, 1-methyl-2-phenylthiomethyl-3-carbethoxy-4-dimethylaminomethyl-5-hydroxy-6-bromoindole hydrochloride], the “Pancreatic Langerhans islet structure, haematoxylin-eosin staining” value [1] was “Restoration of pancreatic Langerhans islet”, the Body mass ([2]; in 10 days) was 180 ± 5 g and the Cholesterol ([2]; in 10 days) was 2.7 ± 0.4 mmol/L. It also gave a Daily water consumption ([2]; in 10 days) of 20 ± 3 mL, a Glucose ([2]; in 10 days) of 5.6 ± 0.2 mmol/L and a Glycosylated hemoglobin ([2]; in 10 days) of 6.2 ± 0.3 mol %. For the same compound, the “Percent of survived rats” value ([2]; in 10 days) was 100%, the Total lipids ([2]; in 10 days) was 10.2 ± 0.5 g/L and the Tri-glycerides ([2]; in 10 days) was 2.5 ± 0.2 mmol/L. The β-lipoproteins ([2]; in 10 days) was 2.0 ± 0.2 g/L, the Body mass ([2]; in 20 days) was 182 ± 10 g and the Cholesterol ([2]; in 20 days) was 1.5 ± 0.2 mmol/L. For the same compound, the Daily water consumption ([2]; in 20 days) was 24 ± 6 mL, the Glucose ([2]; in 20 days) was 5.4 ± 0.3 mmol/L and the Glycosylated hemoglobin ([2]; in 20 days) was 6.5 ± 05 mol %. The “Percent of survived rats” value ([2]; in 20 days) was 75%, the Total lipids ([2]; in 20 days) was 10.6 ± 1.0 g/L and the Tri-glycerides ([2]; in 20 days) was 1.5 ± 0.2 mmol/L. For the same compound, the β-lipoproteins ([2]; in 20 days) was 2.1 ± 0.3 g/L, the “Glucose content, mmol/l, in 10 days” value [3, 4] was 5.6 ± 0.2 mmol/L and the “Glucose content, mmol/l, in 20 days” value [3, 5] was 5.4 ± 0.3 mmol/L.

With `CN(C)C(=N)N=C(N)N` [Metmorphin, reference compound] the “Pancreatic Langerhans islet structure, aldehyde fuchsine staining” value [1] was “Restoration of pancreatic Langerhans islet”, the “Pancreatic Langerhans islet structure, haematoxylin-eosin staining” value [1] was “Restoration of pancreatic Langerhans islet” and the Body mass ([2]; in 10 days) was 185 ± 5 g. For the same compound, the Cholesterol ([2]; in 10 days) was 2.6 ± 0.3 mmol/L and 2.4 ± 0.3 mmol/L, the Daily water consumption ([2]; in 10 days) was 25 ± 3 mL and the Glucose ([2]; in 10 days) was 6.6 ± 0.3 mmol/L and 6.4 ± 0.3 mmol/L. For the same compound, the Glycosylated hemoglobin ([2]; in 10 days) was 5.1 ± 0.1 mol % and 5.0 ± 0.1 mol %, the “Percent of survived rats” value ([2]; in 10 days) was 100% and the Total lipids ([2]; in 10 days) was 10.6 ± 0.6 g/L and 10.5 ± 0.5 g/L. The Tri-glycerides ([2]; in 10 days) was 2.6 ± 0.1 mmol/L, the β-lipoproteins ([2]; in 10 days) was 2.2 ± 0.3 g/L and 2.2 ± 0.4 g/L and the Body mass ([2]; in 20 days) was 180 ± 5 g. For the same compound, the Cholesterol ([2]; in 20 days) was 1.7 ± 0.3 mmol/L and 1.6 ± 0.3 mmol/L, the Daily water consumption ([2]; in 20 days) was 20 ± 3 mL and 19 ± 3 mL and the Glucose ([2]; in 20 days) was 6.4 ± 0.2 mmol/L and 6.3 ± 0.2 mmol/L. The Glycosylated hemoglobin ([2]; in 20 days) was 6.2 ± 0.2 mol % and 6.1 ± 0.2 mol %, the “Percent of survived rats” value ([2]; in 20 days) was 80% and the Total lipids ([2]; in 20 days) was 11.6 ± 1.2 g/L and 11.5 ± 1.0 g/L. For the same compound, the Tri-glycerides ([2]; in 20 days) was 1.6 ± 0.1 mmol/L and 1.6 ± 0.2 mmol/L, the β-lipoproteins ([2]; in 20 days) was 2.2 ± 0.3 g/L and 2.2 ± 0.4 g/L and the “Glucose content, mmol/l, in 10 days” value [3, 4] was 6.6 ± 0.3 mmol/L. For the same compound, the “Glucose content, mmol/l, in 20 days” value [3, 5] was 6.4 ± 0.3 mmol/L.

For `CCOC(=O)c1c(CSc2ccc3ccccc3c2)n(C)c2cc(Br)c(O)c(CN(C)C)c12` [MC-217, 1-methyl-2-β-naphthylthiomethyl-3-carbethoxy-4-dimethylaminomethyl-5-hydroxy-6-bromoindole hydrochloride], the “Pancreatic Langerhans islet structure, aldehyde fuchsine staining” value [1] was “Restoration of pancreatic Langerhans islet”, the “Pancreatic Langerhans islet structure, haematoxylin-eosin staining” value [1] was “Restoration of pancreatic Langerhans islet” and the Body mass ([2]; in 10 days) was 190 ± 10 g. The Cholesterol ([2]; in 10 days) was 2.4 ± 0.2 mmol/L, the Daily water consumption ([2]; in 10 days) was 25 ± 5 mL and the Glucose ([2]; in 10 days) was 5.2 ± 0.2 mmol/L. The Glycosylated hemoglobin ([2]; in 10 days) was 5.2 ± 0.2 mol %, the “Percent of survived rats” value ([2]; in 10 days) was 100% and the Total lipids ([2]; in 10 days) was 10.4 ± 0.5 g/L. It also gave a Tri-glycerides ([2]; in 10 days) of 2.3 ± 0.2 mmol/L, a β-lipoproteins ([2]; in 10 days) of 2.1 ± 0.2 g/L and a Body mass ([2]; in 20 days) of 185 ± 10 g. It also gave a Cholesterol ([2]; in 20 days) of 1.4 ± 0.2 mmol/L, a Daily water consumption ([2]; in 20 days) of 22 ± 5 mL and a Glucose ([2]; in 20 days) of 4.8 ± 0.1 mmol/L. For the same compound, the Glycosylated hemoglobin ([2]; in 20 days) was 4.9 ± 0.3 mol %, the “Percent of survived rats” value ([2]; in 20 days) was 100% and the Total lipids ([2]; in 20 days) was 10.2 ± 0.3 g/L. For the same compound, the Tri-glycerides ([2]; in 20 days) was 1.5 ± 0.2 mmol/L, the β-lipoproteins ([2]; in 20 days) was 2.1 ± 0.2 g/L and the “Glucose content, mmol/l, in 10 days” value ([3]; rat, in vivo) was 5.2 ± 0.2 mmol/L. For the same compound, the “Glucose content, mmol/l, in 20 days” value ([3]; rat, in vivo) was 4.8 ± 0.3 mmol/L.

For `CN(CCOc1ccc(CC2SC(=O)NC2=O)cc1)c1ccccn1` (stereo not drawn) [Avandia], the “Fatality rate after infarction, higher than untreated group” value (patients; Avandia group as compared to the untreated group) is listed as 64% and the “Probability of myocardial infarction, higher than untreated group” value (patients; patients who took Avandia as compared to the untreated group) is listed as 43%.

With `CCOC(=O)c1c(CN2CCCC2)n(C)c2cc(-c3cccnc3)c(O)cc12` [MC-207, 1-methyl-2-pyrrolidinyl-1-methyl-3-carbethoxy-5-hydroxy-6-(pyridine-3-yl)indole] the Body mass ([2]; in 10 days) was 186 ± 10 g, the Cholesterol ([2]; in 10 days) was 2.5 ± 0.3 mmol/L and the Daily water consumption ([2]; in 10 days) was 24 ± 5 mL. The Glucose ([2]; in 10 days) was 5.5 ± 0.3 mmol/L, the Glycosylated hemoglobin ([2]; in 10 days) was 5.1 ± 0.3 mol % and the “Percent of survived rats” value ([2]; in 10 days) was 100%. For the same compound, the Total lipids ([2]; in 10 days) was 10.2 ± 0.5 g/L, the Tri-glycerides ([2]; in 10 days) was 2.5 ± 0.2 mmol/L and the β-lipoproteins ([2]; in 10 days) was 2.0 ± 0.2 g/L. The Body mass ([2]; in 20 days) was 182 ± 10 g, the Cholesterol ([2]; in 20 days) was 1.5 ± 0.2 mmol/L and the Daily water consumption ([2]; in 20 days) was 20 ± 5 mL. The Glucose ([2]; in 20 days) was 5.0 ± 0.2 mmol/L, the Glycosylated hemoglobin ([2]; in 20 days) was 5.0 ± 0.3 mol % and the “Percent of survived rats” value ([2]; in 20 days) was 90%. For the same compound, the Total lipids ([2]; in 20 days) was 10.2 ± 0.3 g/L, the Tri-glycerides ([2]; in 20 days) was 1.8 ± 0.2 mmol/L and the β-lipoproteins ([2]; in 20 days) was 2.1 ± 0.2 g/L. The “Glucose content, mmol/l, in 10 days” value ([3]; rat, in vivo) was 5.5 ± 0.2 mmol/L and the “Glucose content, mmol/l, in 20 days” value ([3]; rat, in vivo) was 5.0 ± 0.3 mmol/L.

Reference: US8247407B2, priority 2007, dated 2012)
